Assay results published in ChEMBL document CHEMBL4837225, “Water-soluble derivatives of evodiamine: Discovery of evodiamine-10-phosphate as an orally active antitumor lead compound” (Eur J Med Chem, 2021).
Converted amounts (≈) assume the structure as drawn. The source made the active and inactive calls. No cut-off for these calls is given here.

Tests used:
[1] = molecular target: DNA topoisomerase 2-alpha (Homo sapiens) (UniProt P11388); test: Inhibition of TOP2 (unknown origin) assessed as formation of short DNA fragments using supercoiled plasmid DNA at 100 uM by ethidium bromide staining based gel
[2] = test system: A549; test: Antitumor activity against human A549 cells xenografted in BALB/c nude mouse assessed as inhibition of tumor growth at 150 mg/kg, po BID for 14 days relative to control; assay type: functional; conditions: 336 h, time 14 day, read-out: TGI
[3] = Solubility of the compound in PBS buffer at pH 7.4; assay type: physicochemical
[4] = Toxicity in BALB/c nude mouse xenografted with human A549 cells assessed as morphological changes in kidney at 150 mg/kg, po bid by H&E staining based light microscopic analysis; assay type: organism-based; conditions: in vivo
[5] = Solubility of the compound in double distilled water; assay type: physicochemical
[6] = test system: HCT-116; test: Cell cycle arrest in human HCT-116 cells assessed as accumulation at G1 phase at 0.5 uM incubated for 24 hrs by propidium iodide staining based flow cytometric analysis (Rvb =35.7 %); assay type: functional
[7] = test system: HCT-116; test: Cell cycle arrest in human HCT-116 cells assessed as accumulation at S phase at 0.1 uM incubated for 24 hrs by propidium iodide staining based flow cytometric analysis (Rvb =44.3 %); assay type: functional
[8] = test system: HCT-116; test: Cell cycle arrest in human HCT-116 cells assessed as accumulation at G2 phase at 0.5 uM incubated for 24 hrs by propidium iodide staining based flow cytometric analysis (Rvb =20 %); assay type: functional
[9] = test system: HCT-116; test: Induction of apoptosis in human HCT-116 cells assessed as increase in p-53 level at 0.2 to 5 uM measured after 24 hrs by Western blot analysis; assay type: functional, cell-based; conditions: dose 0.2-5 µM
[10] = test system: HCT-116; test: Induction of apoptosis in human HCT-116 cells assessed as increase in caspase-9 level at 0.2 to 5 uM measured after 24 hrs by Western blot analysis; assay type: functional, cell-based; conditions: dose 0.2-5 µM
[11] = test system: HCT-116; test: Antitumor activity against human HCT-116 cells xenografted in BALB/c nude mouse assessed as necrosis at 150 mg/kg, po bid by H&E staining based light microscopic analysis; assay type: functional, organism-based

DNA topoisomerase 2-alpha (Homo sapiens), sequence (P11388 whole entry, the tested form may be a part): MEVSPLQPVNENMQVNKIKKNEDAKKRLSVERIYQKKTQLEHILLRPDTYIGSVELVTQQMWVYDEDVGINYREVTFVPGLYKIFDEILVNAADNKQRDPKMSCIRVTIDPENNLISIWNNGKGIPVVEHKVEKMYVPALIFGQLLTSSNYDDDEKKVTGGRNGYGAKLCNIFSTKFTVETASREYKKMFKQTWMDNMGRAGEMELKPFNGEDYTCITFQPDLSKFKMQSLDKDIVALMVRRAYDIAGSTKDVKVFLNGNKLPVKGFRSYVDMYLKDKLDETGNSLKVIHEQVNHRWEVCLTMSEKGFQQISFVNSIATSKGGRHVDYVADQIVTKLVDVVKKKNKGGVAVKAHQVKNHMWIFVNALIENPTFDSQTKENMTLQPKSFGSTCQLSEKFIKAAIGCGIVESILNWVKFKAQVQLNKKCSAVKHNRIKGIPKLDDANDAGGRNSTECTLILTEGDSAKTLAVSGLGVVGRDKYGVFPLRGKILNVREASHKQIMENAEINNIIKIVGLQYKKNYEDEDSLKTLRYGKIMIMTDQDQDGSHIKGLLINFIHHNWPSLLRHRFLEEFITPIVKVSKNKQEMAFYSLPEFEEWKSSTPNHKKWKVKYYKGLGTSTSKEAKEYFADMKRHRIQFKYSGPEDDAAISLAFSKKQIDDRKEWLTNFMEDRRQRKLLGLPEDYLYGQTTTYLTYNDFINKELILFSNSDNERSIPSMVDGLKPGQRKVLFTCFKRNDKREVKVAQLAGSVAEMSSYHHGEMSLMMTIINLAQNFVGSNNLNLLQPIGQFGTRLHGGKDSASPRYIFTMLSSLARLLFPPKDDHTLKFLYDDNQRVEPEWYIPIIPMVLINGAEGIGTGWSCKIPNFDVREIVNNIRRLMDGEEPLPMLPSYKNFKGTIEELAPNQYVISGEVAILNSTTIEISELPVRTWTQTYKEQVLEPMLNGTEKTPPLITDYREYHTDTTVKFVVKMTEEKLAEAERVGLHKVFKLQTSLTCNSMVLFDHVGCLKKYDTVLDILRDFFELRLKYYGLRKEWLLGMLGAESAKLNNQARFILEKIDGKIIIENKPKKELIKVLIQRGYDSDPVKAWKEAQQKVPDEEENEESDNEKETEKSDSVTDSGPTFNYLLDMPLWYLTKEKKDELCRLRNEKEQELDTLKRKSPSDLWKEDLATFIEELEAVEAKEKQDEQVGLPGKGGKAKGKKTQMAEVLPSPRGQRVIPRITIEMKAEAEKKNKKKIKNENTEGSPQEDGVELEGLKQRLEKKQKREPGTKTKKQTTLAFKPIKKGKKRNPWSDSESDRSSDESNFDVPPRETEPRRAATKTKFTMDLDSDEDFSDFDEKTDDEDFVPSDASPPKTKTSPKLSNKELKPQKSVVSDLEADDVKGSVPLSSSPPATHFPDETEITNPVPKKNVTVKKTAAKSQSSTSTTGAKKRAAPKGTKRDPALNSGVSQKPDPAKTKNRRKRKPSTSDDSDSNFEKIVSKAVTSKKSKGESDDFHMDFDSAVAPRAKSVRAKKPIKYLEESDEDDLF

inhibition [1]: Active | solubility [3]: > 1000 µg/mL | solubility [5]: 36 µg/mL (≈ 90.1 µM)
Compound: CN1c2ccccc2C(=O)N2CCc3c([nH]c4ccc(OP(=O)(O)O)cc34)C21 (stereo unspecified)
inhibition in vivo at 150 mg/kg [2]: 59% | Activity [4]: Non-Toxic | Activity [6]: 4.3% | Activity [7]: 40.7% | Activity [8]: 65.3% | Activity [9]: Active | Activity [10]: Active | Activity [11]: Active
